Experimental findings from a melting point compilation (Tetko et al.; mined from patent text by program, amines drawn as free bases though some values may be those of a salt) are described below.

In general, melting point refers to the temperature of the solid-liquid transition. `CC(=O)N1C(C(=O)NC2CCC(O)CC2)C(c2cccc(Cl)c2F)C2(C(=O)Nc3cc(Cl)ccc32)C1CC(C)(C)C` (centres undefined) yielded a melting point of 220 °C.
In turn, `N=C1CN(c2ccccc2)C(=N)O1` displayed a melting point of 117 to 119 °C.
`Nc1scc2c1C(=O)c1c-2ccc(Cl)c1Cl` gave a melting point of 254 to 255 °C.
The compound `NC(N)=NC(=O)Cn1cccc1` gave a melting point of 214 °C.
In the case of `O=C1CCC(N2C(=O)c3cccc(Nc4ccc5ccccc5c4)c3C2=O)C(=O)N1` (centres undefined), the melting point lay in the range of 235 to 237 °C.
`O=C1c2cc3nn[nH]c(=O)c3cc2OC2CCCN12` (centres undefined): the melting point turned out to be 253 °C.
The result for `O=C(Nc1ccc(S(=O)(=O)c2ccccc2)cc1)N[C@@H](Cc1ccc(NC(=O)c2c(Cl)cccc2Cl)cc1)C(=O)O` reads 222 °C; that for `CCOC(=O)c1c(C)[nH]c(C)c1CC`, 105 to 107 °C; that for `N#Cc1c(-c2ccccc2)[nH]c(=O)c2cccnc12`, 292 to 295 °C.
The result for `COc1nc2cc(Cl)c(Cl)c(N)c2nc1OC` reads 182 to 184 °C; that for `Fc1cc(F)cc(Cn2c(S)nc3ccccc32)c1`, 179 to 180 °C.
To `CCCCC/C(=C\C=C\C(=O)O)c1ccc(F)cc1` belongs 116 to 118 °C; to `O=C(O)C1(COc2ccc(Br)cc2)COC1`, 122 to 124 °C.
For `COc1ccc(NC(C)=O)cc1NC(=O)NC(=O)c1cc(F)c(F)cc1Cl`, the melting point lay in the range of 225 to 228 °C.
Compound `CC1Cc2ccccc2CN(CCC(N)=O)C1=O` (centres undefined) came in with a melting point of 168 to 169 °C.
In turn, `CC1(C)CCC(C)(C)c2cc(-c3c[nH]c(C=O)c3)ccc21` came in with a melting point of 211 to 212 °C.
To `Cc1c(C)c(N2C(=O)c3ccccc3C2=O)c(C)c2c1OC(C)(C)C2c1ccc(C(C)C)cc1` (centres undefined) belongs 180 to 181 °C.
With `CCCCn1c(NCCC)nc2ccc(Br)cc2c1=O`, the melting point is 71 to 73 °C.
With `NC(Cc1cc(O)c2c(c1)C(=O)c1cccc(O)c1C2=O)C(=O)O` (centres undefined), the melting point lay within 210 to 212 °C.
For the compound `Cc1ccc(NC(=O)CCCC2CCCCC2)cc1NC(=O)c1ccc(O)cc1`, the melting point was in the range of 159 to 160 °C.
`O=S(=O)(Cc1ccccc1)Nc1ncc(-c2ccccc2)nc1Cc1ccccc1` displayed a melting point of 207 to 208 °C.
In turn, `Nc1c(Cl)cc(C(=O)C=Cc2ccncc2)c2c1OCCO2` had a melting point of 209 to 211 °C.
To `CCOC(=O)c1c2ccc(Cl)cc2c(-c2ccccc2)n1CCCN(CC)C(C)=O` belongs 102 to 104 °C; to `CN(CC(=O)O)Cc1cc(C(=O)c2cccs2)cc(C(C)(C)C)c1O`, 180 to 182 °C; to `Cc1oc(-c2ccccc2)nc1COc1ccc(CON=C(CCCCCCCC(=O)O)c2ccccc2)cc1`, 67 to 68 °C.
To `Cc1cc(S(=O)(=O)N2c3ccccc3-c3ccc(F)cc3C2C)ccc1O` (centres undefined) belongs 196 °C; to `CCCCCCCCON1C(C)(C)CC(OC(=O)COc2ccc(-c3nc(-c4ccc(C)cc4C)nc(-c4ccc(C)cc4C)n3)c(O)c2)CC1(C)C`, 86 to 90 °C.
`CCOC(=O)C(O)c1cc(Br)cn1CCOC(C)=O` (centres undefined): the melting point was found to be 59 °C.
For `N#CCCCCCCCCn1nnc(-c2ccccc2)c1-c1ccccc1`, the melting point fell in the range of 77 to 78 °C.
The result for `COc1c(C)c2c(c(O)c1C/C=C(/Cl)CCC(=O)O)C(=O)OC2` reads 135 to 137 °C; that for `CN1CCN(C(=O)CN2C(=O)C(NC(=O)OCc3ccccc3)N=C(c3ccccc3)c3ccccc32)CC1` (centres undefined), 200 to 202 °C; that for `CCOC(=O)CC(CCCCNC(=O)c1sc(NC(=N)N)nc1C)c1ccccc1` (racemic), 138 °C.
Compound `CC(C)c1nc(CN(C)C(=O)N[C@@H](C)C(=O)N[C@@H](Cc2ccccc2)C[C@H](O)[C@H](Cc2ccccc2)NC(=O)OCc2cncs2)cs1` yielded a melting point of 56 to 58 °C.
Compound `Cn1ccc(C(=O)c2ccc(Cl)cc2)c1` had a melting point of 48 to 50 °C.
Compound `CC(C)(C)c1cc(C=Cc2n[nH]c(=O)o2)cc(C(C)(C)C)c1O` registered a melting point greater than 260 °C.
To `Cc1cc(/C=C/C(=O)O)c(C)c([N+](=O)[O-])c1` belongs 228 °C; to `O=c1ccnc(NCCN(Cc2ccccc2)c2ccccn2)[nH]1`, 187 to 190 °C; to `Cc1cccc(C)c1CNc1cc(C2=NCCN2C)cc2c1nc(C)n2C`, 118 to 119 °C.
To `O=C(O)CCCCOc1ccccc1Cl` belongs 71 to 72 °C; to `CCNC1CC=C(c2c[nH]c3ccc(NC(=N)c4cccs4)cc23)CC1` (centres undefined), 190 to 192 °C.
To `CN1CCN(C2=Nc3cc(Cl)ccc3Cn3nnnc32)CC1` belongs 228 to 230 °C; to `Nc1cccc(-n2c(=O)c3c(CCc4ccncc4)n[nH]c3c3cccnc32)c1`, 261 to 263 °C.
`O=C(O)c1ccc2cc(OCCOc3ccc4c(CCO)c(C(=O)O)c(CCO)cc4c3)ccc2c1`: the melting point was 240 °C.
The compound `COC(=O)c1ccc(COc2cc3c(=O)n(-c4ccc(NC(=O)OC(C)(C)C)cc4)c(C(=O)OC)c(-c4cc(OC)c(OC)c(OC)c4)c3cc2OC)cc1` had a melting point of 197 to 199 °C.
In turn, `COc1cscc1NC=O` yielded a melting point of 95 to 97 °C.
Compound `CC1(C)OCC([N+](=O)[O-])CO1` gave a melting point of 60 to 61 °C.
To `O=C(NCCN1CCOc2ccc(O)cc21)c1ccco1` belongs 59 to 62 °C; to `O=C(c1cccs1)c1cnn2c(-c3cccc(-c4nnn(CCN5CCOCC5)n4)c3)ccnc12`, 103 °C.
To `O=C(NCCO)c1cccc(-c2cccn3cc(Cc4cccc(C(F)(F)F)c4)nc23)c1` belongs 136 to 137 °C; to `COC(=O)C1Oc2ccccc2C(C)c2ccccc2O1` (centres undefined), 95 to 120 °C; to `CC(C)c1cccc(C(C)C)c1NC(=O)CN1CCN(CCSc2nc3cccc(C(C)(C)C)c3o2)CC1`, 138 to 140 °C.
Compound `CC(C)(C)OC(=O)N1CC=C(c2c(F)cc(N)cc2F)CC1` came in with a melting point of 134 to 135 °C.
The result for `N=C(Nc1ccc(CCNCc2ccccc2Cl)cc1)c1cccs1` reads 81 to 82 °C; that for `CC(=O)c1cc(Cl)c(O)c2ncccc12`, 163 to 166 °C; that for `Cc1ccc(-c2coc3c(C)c(C)cc(C)c23)cc1`, 112 to 113 °C.
Consider `O=C1CCNN1c1ccc(Cl)cc1`, for which the melting point was in the range of 120 to 122 °C.
The compound `CCCCCCCNC(=O)N(C)c1cccc(-c2ccc(C=C(OC)C(=O)O)cc2)c1` returned a melting point of 114 °C.
The result for `CCOC(=O)C(=O)Nc1ccc(Cl)cc1C(F)(F)F` reads 55 to 58 °C; that for `O=C1c2ccccc2C(O)(c2ccc(Cl)cc2)N1Cc1ccc([N+](=O)[O-])cc1` (centres undefined), 197 to 200 °C.
Turning to `COc1ccc(C2(O)c3c(C)c(NC(=O)CC(C)(C)C)c(C)c(C)c3OC2(C)C)cc1` (centres undefined), the melting point is 98 to 99 °C.
The result for `CCCCCCCCCCOCC(O)CO` (centres undefined) reads 38.5 to 39 °C; that for `CC(C)(C)C(=O)Oc1cc(-c2oc3ccccc3c(=O)c2C(=O)N2CCN(c3ccccn3)CC2)cc(OC(=O)C(C)(C)C)c1OC(=O)C(C)(C)C`, 120 to 125 °C.
In turn, `N#CCn1c2ccccc2c2nc3ccccc3nc21` gave a melting point of 231 to 232 °C.
The result for `O=C(CCCCC1(C(=O)O)CC1)CCCCC1(C(=O)O)CC1` reads 132 to 134 °C; that for `CNC(=O)Cn1c(-c2ccc(F)cc2)nc2cccnc21`, 215 to 217 °C; that for `CC12CCC(O)CC1=CCC1C2CCC2(C)C(=C(C#N)CC(=O)O)CCC12` (centres undefined), 245 to 250 °C.
To `NC(=O)CNC(=O)c1cccc(-c2ccc3c(n2)N(Cc2ccc(Cl)cc2Cl)CC3)c1` belongs 183 to 184 °C; to `OCC(O)Cc1nccn1CCCCc1ccc(OCc2coc(/C=C/c3c(F)cccc3F)n2)cc1` (centres undefined), 123 to 125 °C.
The result for `COC(=O)C(=O)NS(=O)(=O)Cc1ccccc1` reads 117 to 122 °C.
`CCCCCCCCCCCCCCCCCCCCCC(=O)OCC1CC1` showed a melting point of 44 °C.
The result for `COc1ccc2c(c1)CC(=O)N2C` reads 93 to 94 °C; that for `CC(C)(C)[Si](C)(C)Oc1ccc(CON2C(=O)c3ccccc3C2=O)cc1`, 76 to 77 °C.
The result for `Cc1cc(-c2ccc(S(N)(=O)=O)cc2)n(-c2ccc(S(C)=O)cc2)c1` (centres undefined) reads 249 to 251 °C; that for `CCOC(=O)c1cc(-c2ccc(Cl)cc2)nc2ccnn12`, 160 to 161 °C.
Take `CN1C(=O)C(=O)N(Cc2ccccc2)CC1(CCOC1CCCCO1)c1ccc(Cl)c(Cl)c1` (centres undefined): the melting point came out at 178 °C.
To `BrCc1cc(I)cc(I)c1I` belongs 120 to 121 °C; to `O=C1NCCc2c(-c3cccc(Oc4ccc(F)cc4)c3)[nH]c3cccc1c23`, 240 to 241 °C.
To `O=S1(=O)CCc2nn(-c3ccc(Cl)cc3)c(Br)c2C1` belongs 138 to 145 °C; to `COc1cc2c(cc1OC)CCCC(C(=O)N1CCN(C(=O)c3cc(OC)c(OC)c(OC)c3)CC1)=C2`, 164 to 165 °C; to `CSc1nc(N)c(C=O)s1`, 159 to 162 °C.
Turning to `O=C(O)Cn1ncc(-c2ccccc2)c1-c1ccccc1`, the melting point was 169 to 170 °C.
To `C[C@](O)(CBr)C(=O)Nc1ccc(C#N)c(C(F)(F)F)c1` belongs 124 to 126 °C.
With `NCCNC(=O)COc1ccc(C2=NNC(=O)CC2)cc1Cl`, the melting point lay in the range of 168 to 170 °C.
To `CCOC(=O)C1CN(C)c2nc3cc(F)c(F)cc3cc2C1=O` (centres undefined) belongs 188 °C; to `CC(C)(C)c1cc(C(=O)Nc2nc(C(=O)O)cs2)cc(C(C)(C)C)c1O`, 291 to 293 °C; to `CCOC(=O)c1ccc(NC(=O)C(C)CS)nc1` (centres undefined), 58 to 61 °C.
In turn, `O=C(O)c1cccnn1` showed a melting point of 156 to 158 °C.
`COc1cc(N)c(Cl)cc1C(=O)N[C@H]1CCN(CCNC(=O)c2ccc(F)cc2)C[C@H]1OC` (relative stereo) had a melting point of 209 °C.
To `O=C(Nc1ccc(OCCCN2CCOCC2)c2ccccc12)c1cc(F)cc(N2CCCCC2)c1` belongs 90 to 92 °C.
